Measured values taken from publication PMC6155437 (Molecules : A Journal of Synthetic Chemistry and Natural …, 2017).

Columns and labels:
Format in all cases: in vitro ADME
[1] = biological target: T1, UGT1A3 (Homo sapiens, UniProt P35503); assay: UGT1A3 chenodeoxycholic acid 24-acyl-glucuronidation inhibition in human liver microsomes
T1 construct: tissue Corning Life Sciences; host or cells: pooled human liver microsomes (150 donors)
T1 sequence (P35503 29-534): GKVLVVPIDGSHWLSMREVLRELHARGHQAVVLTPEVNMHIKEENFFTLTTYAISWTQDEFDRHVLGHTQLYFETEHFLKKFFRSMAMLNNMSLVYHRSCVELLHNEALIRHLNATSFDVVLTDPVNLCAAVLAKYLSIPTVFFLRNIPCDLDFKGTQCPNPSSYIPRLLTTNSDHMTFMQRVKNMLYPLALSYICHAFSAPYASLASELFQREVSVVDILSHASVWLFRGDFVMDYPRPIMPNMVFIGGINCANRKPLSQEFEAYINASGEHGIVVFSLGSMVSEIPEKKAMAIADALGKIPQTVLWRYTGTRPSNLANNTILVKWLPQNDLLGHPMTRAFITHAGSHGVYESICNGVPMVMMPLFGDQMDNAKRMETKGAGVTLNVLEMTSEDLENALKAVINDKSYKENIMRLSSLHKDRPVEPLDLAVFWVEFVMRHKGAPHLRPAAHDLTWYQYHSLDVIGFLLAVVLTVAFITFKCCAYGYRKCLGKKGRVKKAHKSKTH
Description: (§1) After 3 min of pre-incubation at 37 °C, the reactions were initiated by addition of UDPGA; incubation continued for 60 min at 37 °C in a shaking water bath. The reaction was stopped by placing the tubes on ice and adding 50 µL ice-cold acetonitrile containing internal standards (propofol glucuronide for chenodeoxycholic acid 24-acyl-β-glucuronide and mycophenolic acid glucuronide, and meloxicam for SN-38 glucuronide, trifluoperazine glucuronide, N-acetylserotonin β-D-glucuronide, and naloxone 3-β-D-glucuronide). The incubation mixtures were centrifuged (13,000× g, 4 min, 4 °C). All assays were performed in triplicate and average values were used in calculations.
The reactions were initiated by addition of UDPGA at 37 °C and stopped after 60 min by placing the incubation tubes on ice and adding 100 μL of ice-cold methanol containing propofol glucuronide (internal standard for UGT1A3) or meloxicam (internal standard for UGT2B7). The incubation mixtures were centrifuged (13,000× g, 4 min, 4 °C), and then, 50 μL of the supernatant was diluted with 50 μL of water. Aliquots (5 μL) of the diluted supernatants were analyzed by LC-MS/MS.
(§2) The metabolites formed from the six UGT cocktail substrates were measured simultaneously using the LC-MS/MS method. The ESI source settings in both positive- and negative-ion modes for metabolite ionization were: capillary voltage, 4200 V; vaporizer temperature, 350 °C; capillary temperature, 330 °C; sheath gas pressure, 35 psi; and auxiliary gas pressure, 15 psi. […] Data were processed using Xcalibur software.
(§3) The apparent kinetic parameters for inhibitory potential (Ki and kinact values) and inhibition mode were estimated from the fitted curves using the Enzyme Kinetics program (ver. 1.1; Systat Software Inc., San Jose, CA, USA).

[2] = biological target: T2, UGT1A9 (Homo sapiens, UniProt O60656); assay: UGT1A9 mycophenolic acid glucuronidation inhibition in human liver microsomes; conditions: at 50 µM
T2 construct: pooled human liver microsomes (0.2 mg/mL), 5 mM UDPGA; tissue Corning Life Sciences; host or cells: pooled human liver microsomes (150 donors)
T2 sequence (O60656 26-530): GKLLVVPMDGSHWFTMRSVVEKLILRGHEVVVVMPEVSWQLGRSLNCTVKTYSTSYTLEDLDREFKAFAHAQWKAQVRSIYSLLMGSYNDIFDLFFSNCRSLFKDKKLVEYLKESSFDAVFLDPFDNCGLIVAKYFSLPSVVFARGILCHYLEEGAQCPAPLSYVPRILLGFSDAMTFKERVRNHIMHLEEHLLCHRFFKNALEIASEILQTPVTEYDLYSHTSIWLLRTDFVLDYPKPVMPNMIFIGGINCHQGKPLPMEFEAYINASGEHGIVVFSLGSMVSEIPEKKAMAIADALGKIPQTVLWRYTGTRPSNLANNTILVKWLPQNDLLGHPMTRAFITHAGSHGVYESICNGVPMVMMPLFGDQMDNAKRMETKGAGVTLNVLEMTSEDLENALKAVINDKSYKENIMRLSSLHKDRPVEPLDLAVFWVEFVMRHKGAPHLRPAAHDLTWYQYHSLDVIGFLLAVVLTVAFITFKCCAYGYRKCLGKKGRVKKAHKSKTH
Description: as §1, §2, §3

[3] = biological target: T3, CYP1A2 (Homo sapiens, UniProt P05177); assay: CYP1A2 phenacetin O-deethylase inhibition in pooled human liver microsomes (substrate cocktail, LC-MS/MS); conditions: at 50 µM
T3 construct: pooled human liver microsomes (0.2 mg/mL); tissue Corning Life Sciences; host or cells: pooled human liver microsomes (150 donors)
T3 sequence (P05177 1-516): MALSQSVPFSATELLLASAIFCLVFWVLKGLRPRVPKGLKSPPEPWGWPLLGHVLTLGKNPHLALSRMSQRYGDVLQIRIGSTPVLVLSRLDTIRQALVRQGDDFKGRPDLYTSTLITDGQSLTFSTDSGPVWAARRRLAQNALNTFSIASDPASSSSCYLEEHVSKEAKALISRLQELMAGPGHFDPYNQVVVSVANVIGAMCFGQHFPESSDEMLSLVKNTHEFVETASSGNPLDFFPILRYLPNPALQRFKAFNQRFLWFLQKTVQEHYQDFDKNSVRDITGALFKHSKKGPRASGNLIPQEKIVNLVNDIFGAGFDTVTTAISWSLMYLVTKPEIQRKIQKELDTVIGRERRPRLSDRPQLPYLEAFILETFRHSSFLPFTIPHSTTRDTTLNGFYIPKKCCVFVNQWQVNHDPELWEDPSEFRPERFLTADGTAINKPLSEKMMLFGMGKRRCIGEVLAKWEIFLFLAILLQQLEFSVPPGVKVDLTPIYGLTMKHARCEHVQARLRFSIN
Description: After a 3-min pre-incubation at 37 °C, the reactions were initiated by addition of NADPH and incubation proceeded for 15 min at 37 °C in a shaking water bath. […] The incubation mixtures were centrifuged (13,000× g, 4 min, 4 °C). All assays were performed in triplicate and mean values were used in calculations.
Each reaction was initiated by adding the seven-CYP probe substrate cocktail.
The metabolites formed from CYP substrates were quantified simultaneously by a LC-MS/MS method described previously. The ESI source settings in positive-ion mode for metabolite ionization were: capillary voltage, 4200 V; vaporizer temperature, 350 °C; capillary temperature, 330 °C; sheath gas pressure, 35 psi; and auxiliary gas pressure, 15 psi. […] Analytical data were processed using Xcalibur software (version 2.1, Thermo Scientific).
as §3

O=C(c1cccc2ccccc12)c1cn(CCCCCF)c2ccccc12 [AM-2201, 1-(5-fluoropentyl-1H-indol-3-yl)-(naphthalene-1-yl)methanone]
Ki [1]: 4.3 µM | IC50 ([1]; IC50, UGT1A3-catalyzed chenodeoxycholic acid 24-acyl-glucuronidation, abstract): 4.3 µM | IC50 ([1]; IC50, UGT1A3 chenodeoxycholic acid 24-acyl-glucuronidation, 2 μM chenodeoxycholic acid, human liver microsomes): 6.4 µM | Inhibition Mode ([1]; UGT1A3 chenodeoxycholic acid 24-acyl-glucuronidation): competitively inhibited | inhibition of UGT1A9-catalyzed mycophenolic acid glucuronidation [2]: negligibly inhibited | inhibition of CYP1A2-mediated phenacetin O-deethylation [3]: negligibly inhibited
